# Results as given in patent US20230201149A1, “METHODS OF ANTIPATHOGENIC TREATMENT” (priority 2020, published 2023).
# Read-outs that look alike come from different tables or passages of the source.
# What was measured:
# [1] = system: COVID-19; details: cited from earlier work
# [2] = system: COVID-19 coronavirus in human lung cells; assay: Antiviral potency in human lung cells; type: cell-based
# Method: Earlier research of Nafamostat indicated it would not have sufficient concentration in the plasma to cause death of the virus. This was based on trialing drugs in monkey kidney cells. It was determined it would be more realistic to trial the drugs in human lung cells. The results were dramatic in that vastly different effects resulted.
# [3] = system: COVID-19 coronavirus in human lung cells; details: read-out: 50% kill rate IC50; cited from earlier work
# [4] = system: COVID-infected cells; details: cited from earlier work
# [5] = system: ARDS patients; details: intravenous, P<0.001; cited from earlier work
# [6] = Alzheimer patients, 200 microg/day, cited from earlier work
# [7] = elderly subjects, six months of 45 mg zinc/day as a gluconate; cited from earlier work
# [8] = system: SARS-Cov-2; assay: Inhibition of replication of SARS-Cov-2; type: cell-based
# [9] = system: SARS-Cov-2; details: replication of SARS-Cov-2, cited from earlier work
# [10] = system: COVID-19 patients; details: cited from earlier work; for inflammatory markers (CRP and ferritin): during IV N-acetylcysteine administration
# [11] = in vivo, cited from earlier work
# [12] = system: severe COVID patients; details: cited from earlier work
# [13] = system: COVID-19 patients; details: 50 treated patients, cited from earlier work
compound,measurement,setting,value
Aprotinin,increase of effectiveness by omeprazole,[1],2.7 fold
N=C(N)c1ccc2cc(OC(=O)c3ccc(N=C(N)N)cc3)ccc2c1 [Nafamostat],"decrease of IC50, human lung cells vs monkey kidney cells",[2],6000 fold
same,potency relative to Remdesivir,[2]; human lung cells,600 fold
same,IC50,[3],2.2 nM
same,COVID-induced cytopathogenic effect (CPE),[4],inhibits
same,effect on the virus replication cycle,[4]; high levels of double-strand RNA in treated infected cells,limited effects
[Se] [selenium],"drop in IL-1beta, R value",[5],−0.624
same,"drop in IL-6, R value",[5],0.642
same,serum high sensitivity C-reactive protein,[6]; P<0.001,reduced
same,total glutathione,[6]; P=0.001,significantly increased
[Zn] [Zinc],"concentration of plasma hsCRP, IL-6, MCP-1, VCAM-1, secretory phospholipase A2, MDA+HAE",[7],decreases
"Cc1c(O)cccc1C(=O)N[C@@H](CSc1ccccc1)[C@H](O)CN1C[C@H]2CCCC[C@H]2C[C@H]1C(=O)NC(C)(C)C [nelfinavir, Nelfinavir]",trough and peak serum concentration relative to EC50,[8],three to six times higher
same,EC50,[9]; read-out: effective concentration for 50% inhibition (EC50),1130 nM
same,EC90,[9]; read-out: effective concentration for 90% inhibition (EC90),1760 nM
CC(=O)N[C@@H](CS)C(=O)O [N-acetylcysteine],bilirubin (total and direct),"[10]; G6PD-deficient patient, IV NAC 600 mg every 12 h for six days",sustained reduction
same,ALT,"[10]; G6PD-deficient patient, after IV NAC 30,000 mg over 24 h for two days, peak before 263",100 U/L
same,AST,"[10]; G6PD-deficient patient, after IV NAC 30,000 mg over 24 h for two days, peak before 338",62 U/L
same,NLR,"[10]; G6PD-deficient patient, sustained after the first dose",decrease
same,inflammatory markers (CRP and ferritin),[10],significant overall reduction
same,inflammatory markers (CRP and ferritin),[10]; listed as NAC,significantly reduced
same,patients eventually discharged,[10]; of ten patients,Eight
same,lung functions,[10]; ten respirator-dependent COVID-19 patients,improved
same,bioavailability,[11]; po,6-10%
same,"half-life, reduced N-acetylcysteine",[11],about 2 h
same,"half-life, total N-acetylcysteine",[11],about 6 h
Heparin,benefit in less severe cases,[12]; less severe cases,no benefit
same,death rate,"[12]; most severe cases, reduced from 64%",40%
C=C1CC[C@H](O)C/C1=C/C=C1\CCC[C@]2(C)[C@@H]([C@H](C)CCCC(C)(C)O)CC[C@@H]12 [calcifediol],patients requiring admission to the ICU,"[13]; oral, untreated 50%",2%
same,deaths,[13],none died
